Reference: US4983597A, “Beta-lactams as anticholesterolemic agents” (Merck & Co., Inc., priority 1989, dated 1991)

Biological target: T1, HMG-CoA synthase (Rattus norvegicus, UniProt P17425)
T1 construct: The livers from male Charles River CD rats (225-350 g) were homogenized; from tissue; host or cells: rat liver (male Charles River CD rats), 100,000 x g supernatant, ammonium sulfate and DEAE-52 fraction
T1 sequence (P17425 1-520): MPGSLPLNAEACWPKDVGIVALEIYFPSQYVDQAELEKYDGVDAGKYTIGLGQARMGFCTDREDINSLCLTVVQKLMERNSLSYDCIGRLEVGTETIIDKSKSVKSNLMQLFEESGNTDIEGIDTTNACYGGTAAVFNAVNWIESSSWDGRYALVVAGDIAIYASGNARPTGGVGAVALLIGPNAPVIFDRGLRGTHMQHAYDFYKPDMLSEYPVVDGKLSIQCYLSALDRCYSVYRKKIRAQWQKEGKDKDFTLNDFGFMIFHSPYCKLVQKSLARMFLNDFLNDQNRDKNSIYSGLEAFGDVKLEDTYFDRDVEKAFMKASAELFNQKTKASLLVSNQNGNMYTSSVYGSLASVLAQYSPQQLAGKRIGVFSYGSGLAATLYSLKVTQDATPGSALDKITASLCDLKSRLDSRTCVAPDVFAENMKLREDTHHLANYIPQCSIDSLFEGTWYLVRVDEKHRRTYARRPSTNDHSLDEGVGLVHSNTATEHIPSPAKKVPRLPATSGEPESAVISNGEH
Test: HMG-CoA Synthase Inhibition Assay
Type: biochemical
Conditions: Table I; rat liver enzyme, 1-[14C]-acetyl-CoA incorporation
Experimental: The intrinisic HMG-CoA synthase inhibition activity of the compounds of this invention is measured by the standard in vitro protocol described below:
The livers from male Charles River CD rats (225-350 g) were homogenized in 0.25 M sucrose which was adjusted with phenylmethylsulfonylfluoride (PMSF) and N-p-tosyl-1-lysine chloromethyl ketone (TLCK) so that the final concentration of each was […], respectively. The homogenate was centrifuged at 15,000× g for 20 minutes, the supernatant filtered through a fine nylon screen to remove most of the fat layer and recentrifuged at 100,000× g for 1 hour. This supernatant was removed and 1 M potassium phosphate, dithiothreitol (DTT) and ethylene glycolbis(β-aminoethyl ether)-N,N,N',N'-tetraacetic acid (EGTA) added to give a final concentration of 0.1 M (pH 7.2), 0.5 mM and 0.1 mM, respectively. Solid ammonium sulfate was added to 50% saturation to the protein solution, it was centrifuged at 15,000× g and the supernatant discarded. This precipitated protein could be stored at -70° C. for at least one month with very little loss of activity. The ammonium sulfate precipitate was dissolved in an minimal amount of 0.06 M potassium phosphate buffer (pH 7.2) containing 0.5 mM dithiothreitol and 0.1 mM EGTA (referred to as 0.06 M phosphate buffer) and dialyzed overnight against 2 liters of the same buffer to remove the ammonium sulfate and to inactivate HMG-CoA lyase [Clinkenbeard, et al., J. Biol. Chem. 250, 3108-3116(1975)].
The dialyzed extract was added to a column of DEAE-52 (Whatman) which had been equilibrated with 0.06 M phosphate buffer (10 mg of protein in 1 ml bed volume of the resin). The DEAE-cellulose was eluted with 0.06 M phosphate buffer until the optical density at 280 nm was essentially zero. This fraction contained the β-ketoacetyl-CoA thiolase activity. The HMG-CoA synthase was eluted from the column with 0.1 M phosphate buffer (pH 7.2) containing 0.5 mM DTT and […] EGTA, and was virtually free of all thiolase activity. The protein was precipitated by the addition of ammonium sulfate to give 50% saturation. This solution was stirred for 10 minutes at 4° C. and the precipitate collected by centrifugation at 15,000 rpm for 10 minutes. The supernatant was discarded and the precipitate dissolved in a minimum of 0.06 M phosphate buffer, pH 7.2 (about 10 ml) and the enzyme stored at -80° C.
HMG-CoA Synthase Inhibition Assay
Enzyme protein (ca. 24 mg) was added to a solution containing […] Tris-HCl (pH 8.0), 11.7 μM MgCl2, 1.17 μM ethylenediaminetetraacetic acid (EDTA), 0.58 μM dithiothreitol, and the indicated concentrations of the test compound (added as a 2 mg/ml solution in dimethylsulfoxide). The incubation took place in a volume of 0.085 ml at 30° in a shaking water bath. After 5 minutes, […] of a solution containing acetoacetyl-CoA and 0.1 μCi of 1-[^14 C]-acetyl-CoA was added to give a final concentrations of 0.1 and 0.4 μM, respectively. The incubation was continued for 10 more minutes and the reaction stopped by the addition of […] of the assay mixture to 0.2 ml of 6N HCl in a glass scintillation vial. The vial was heated for 1 hour at 120° after which time 0.2 ml more of 6N HCl was again added to each vial and the heating continued for another hour. Following this, 1.0 ml of 0.9% saline was added to each vial and finally 10 ml of scintillation liquid. Radioactivity was determined in a Packard Tri-Carb liquid scintillation counter. Percent inhibition is calculated by the formula: [formula]
IC50 values were determined by plotting the log of the concentration of the test compound verses the percentage inhibition and fitting a straight line to the resulting data by using the least squares method.

Q: With `C=CCOc1c(NC(C)=O)cc(C(=O)OC[C@@H]2[C@H](CC)C(=O)N2S(=O)(=O)c2ccc(C)cc2)cc1OC` (relative stereo) [Table I mm] as the compound, how does the IC50 read?
A: The IC50 was 300 nM.

Q: `CC[C@@H]1C(=O)N(S(=O)(=O)c2ccc(C)cc2)[C@@H]1COC(=O)c1ccc(C(=O)OC)cc1` (relative stereo) [Table I ii] was tested. Which IC50 did it give?
A: The IC50 was 8.5 nM.

Q: `CC[C@@H]1C(=O)N(S(=O)(=O)c2ccc(C)cc2)[C@@H]1COC(=O)c1ccco1` (relative stereo) [Table I g] was tested. Which IC50 did it give?
A: Its IC50 is 7.9 nM.

Q: For `CC[C@@H]1C(=O)N(S(=O)(=O)c2ccc(C)cc2)[C@@H]1COC(=O)c1ccccc1NS(C)(=O)=O` (relative stereo) [Table I l], which IC50 is on record?
A: The IC50 was 31 nM.

Q: `CC[C@@H]1C(=O)N(S(=O)(=O)c2ccc(C)cc2)[C@@H]1COC(=O)c1cccc(N)c1` (relative stereo) [Table I v] was tested. Which IC50 did it give?
A: Its IC50 is 45 nM.

Q: How did the IC50 turn out when `CC[C@@H]1C(=O)N(S(=O)(=O)c2ccc(C)cc2)[C@H]1COC(=O)c1ccc(OC)cc1` (relative stereo) [Table I tt] was run?
A: Its IC50 is 170 nM.

Q: `CC[C@H]1C(=O)N(S(=O)(=O)c2ccc(C)cc2)[C@H]1COC(=O)c1ccc(OC)cc1` [Table I j] was tested. Which IC50 did it give?
A: The IC50 was 200 nM.

Q: How did the IC50 turn out when `CC[C@@H]1C(=O)N(S(=O)(=O)c2ccc(C)cc2)[C@@H]1COC(=O)c1ccccc1[N+](=O)[O-]` (relative stereo) [Table I c] was run?
A: Its IC50 is 23 nM.

Q: For `CC[C@@H]1C(=O)N(S(=O)(=O)c2ccc(C)cc2)[C@@H]1COC(=O)c1ccccc1N` (relative stereo) [Table I n], which IC50 is on record?
A: Its IC50 is 31 nM.

Q: Which IC50 does the source give for `CC[C@@H]1C(=O)N(S(=O)(=O)c2ccc(C)cc2)[C@@H]1COC(=O)c1ccc(OC)cc1` (relative stereo) [Table I cc] here?
A: The IC50 was 30 nM.

Q: Which IC50 does the source give for `CC[C@@H]1C(=O)N(S(=O)(=O)c2ccc(C)cc2)[C@@H]1COC(=O)c1ccc(NS(C)(=O)=O)cc1` (relative stereo) [Table I nn] here?
A: The IC50 was 16 nM.

Q: For `CC[C@@H]1C(=O)N(S(=O)(=O)c2ccc(C)cc2)[C@@H]1COC(=O)c1ccc([N+](=O)[O-])cc1` (relative stereo) [Table I y], which IC50 is on record?
A: Its IC50 is 28 nM.

Same assay, conditions: Table II; rat liver enzyme, 1-[14C]-acetyl-CoA incorporation

Q: For `CCCOc1c(Br)cc(/C=C/C(=O)OC[C@@H]2[C@H](CC)C(=O)N2S(=O)(=O)c2ccc(C)cc2)cc1OC` (relative stereo) [Table II u], which IC50 is on record?
A: Its IC50 is 90 nM.

Q: How did the IC50 turn out when `CC[C@H]1C(=O)N(S(=O)(=O)c2ccc(C)cc2)[C@H]1COC(=O)NC1CCCCC1` (relative stereo) [Table II w] was run?
A: Its IC50 is 54 nM.

Q: How did the IC50 turn out when `CC[C@H]1C(=O)N(S(=O)(=O)c2ccc(C)cc2)[C@H]1COC(=O)Nc1ccc(C(F)(F)F)cc1` (relative stereo) [Table II x] was run?
A: The IC50 was 260 nM.

Q: With `CC[C@@H]1C(=O)N(S(=O)(=O)c2ccc(C)cc2)[C@@H]1COC(=O)COc1ccccc1` (relative stereo) [Table II n] as the compound, how does the IC50 read?
A: The IC50 was 24 nM.

Q: For `CC[C@H]1C(=O)N(S(=O)(=O)c2ccc(C)cc2)[C@H]1COC(=O)Cc1cc(OC)c(OC)c(OC)c1` (relative stereo) [Table II s], which IC50 is on record?
A: The IC50 was 20 nM.

Q: With `CO[C@H](C(=O)OC[C@@H]1CC(=O)N1S(=O)(=O)c1ccc(C)cc1)c1ccccc1` [Table II e] as the compound, how does the IC50 read?
A: Its IC50 is 42 nM.

Same assay, conditions: Table IV; rat liver enzyme, 1-[14C]-acetyl-CoA incorporation

Q: How did the IC50 turn out when `Cc1ccc(S(=O)(=O)N2C(=O)[C@H](CO)[C@@H]2C=Cc2ccccc2)cc1` (relative stereo) [Table IV d] was run?
A: The IC50 was 1100 nM.

Q: For `CC[C@@H]1C(=O)N(S(=O)(=O)c2ccc(C)cc2)[C@@H]1C(C)=Cc1ccccc1` (relative stereo) [Table IV f], which IC50 is on record?
A: Its IC50 is 430 nM.

Q: `CCC[C@H]1C(=O)N(S(=O)(=O)c2ccc(C)cc2)[C@@H]1C=Cc1ccccc1` (relative stereo) [Table IV a] was tested. Which IC50 did it give?
A: The IC50 was 1500 nM.

Same assay, conditions: Table V; rat liver enzyme, 1-[14C]-acetyl-CoA incorporation

Q: Which IC50 does the source give for `CC[C@H]1C(=O)N(S(=O)(=O)c2ccc(C)cc2)[C@H]1CNc1ccc(C(=O)O)cc1` (relative stereo) [Table V a, (±) cis-3-Ethyl-4-hydroxycarbonylphenylaminomethyl-N-toluenesulfonyl-2-azetidinone] here?
A: Its IC50 is 9900 nM.

Q: How did the IC50 turn out when `CC(=O)OCC(C)C1CC(=O)N1S(=O)(=O)c1ccc(C)cc1` (stereo not drawn) [Table V g] was run?
A: The IC50 was 290 nM.

Same assay, conditions: Table VI; rat liver enzyme, 1-[14C]-acetyl-CoA incorporation

Q: For `Cc1ccc(S(=O)(=O)N2C(=O)C(C)(C)C2C2OC2c2ccccc2)cc1` (stereo not drawn) [Table VI d], which IC50 is on record?
A: Its IC50 is 110 nM.
